Laboratory results reported in paper PMC11920646 (Frontiers in Pharmacology, 2025).
Values joined by “and” are separate entries in the source; they are usually repeats but may differ in a detail not shown here. Equal entries are not always repeated.

Tests used:
[1] = system: IL-6 release in A549 cells; design: method as in Hu et al., 2011; conditions: dagrocorat study ref Hu et al., 2011; cited from earlier work
[2] = system: IL-1β–induced IL-6 release in A549 cells; assay: Inhibition of IL-1β–induced IL-6 release in A549 cells; type: cell-based, human
Procedure: Cells from the human lung epithelial cell line A549 (CCL-185, ATCC) were seeded in 96-well plates at a density of […] in F12K Nutrient Mix (Gibco™, ThermoFisher Scientific, Waltham, MA, United States) with 10% fetal calf serum (FCS), and cultured for 24 h in standard conditions. […] After 30 min’ incubation, human IL-1β (1 ng/mL final concentration) was added at 50 µL/well, followed by a 20 h-incubation in standard conditions. Human IL-6 was measured in the collected supernatant using the human AlphaLISA® immunoassay kit (PerkinElmer; Supplementary Material).
Per the human AlphaLISA® (PerkinElmer) immunoassay kit instructions, the immuno-assay buffer was diluted 1:10 in water and the human IL-6 analyte standard was diluted in FCS-free F12K nutrient mix (30,000–10 pg/mL). Each standard dilution or sample (5 μL each) was added to the wells of a 96-well polystyrene compound plate, to which 20 µL of the test mix 1 (containing anti-IL-6 acceptor beads and biotinylated anti-IL-6 antibody diluted 1:200 in immuno-assay-buffer) was added to each well and incubated for 1 h at room temperature. Afterwards, donor beads were diluted 1:62.5 in immuno-assay-buffer and 25 µL were transferred to each well. After a 30-min incubation at room temperature, the plates were read using an EnVision Multilabel Reader® (PerkinElmer) equipped with the ALPHA option.

[3] = target: T1, human progesterone receptor (PR) (Homo sapiens, UniProt P06401); assay: Human PR radioligand binding (3H-progesterone, T47D cells); conditions: read-out: inhibition of 3H-progesterone binding; footnote: at 10 µM
T1 sequence (P06401 636-933 limits assumed): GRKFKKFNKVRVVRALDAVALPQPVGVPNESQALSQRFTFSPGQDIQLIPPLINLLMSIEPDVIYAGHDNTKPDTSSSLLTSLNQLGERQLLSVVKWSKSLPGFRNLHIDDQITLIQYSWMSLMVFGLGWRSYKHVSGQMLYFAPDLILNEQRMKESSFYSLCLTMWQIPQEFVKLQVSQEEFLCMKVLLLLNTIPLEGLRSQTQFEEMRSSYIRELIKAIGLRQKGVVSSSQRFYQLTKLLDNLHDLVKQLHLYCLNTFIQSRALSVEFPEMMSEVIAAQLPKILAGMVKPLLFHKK
Procedure: Scintillation counting of bound radioligand was conducted after 6 and 20 h of incubation (at 4°C), respectively. […] Scintillation counting of bound radioligand was conducted after 20 h of incubation at 4°C.
The same statistical methods were used for the MR binding assays, but using MathIQ™ software (ID Business Solutions Ltd., Woking, United Kingdom).
Percent inhibition of control specific binding was calculated as follows: […]
The half-maximal inhibitory concentration (IC50; i.e., the concentration causing a half-maximal inhibition of control specific binding) and Hill coefficients (nH) were determined by non-linear regression analysis of the competition curves generated with mean replicate values using the following Hill equation curve fitting: Y=D+ A-D1+ C/C50nH , where Y = specific binding, A = left asymptote of the curve, D = right asymptote of the curve, C = compound concentration, C50 = IC50, and nH = slope factor.
The inhibition constants (Ki) were calculated using the Cheng Prusoff equation:
where L = concentration of radioligand employed in the assay, and KD = affinity of the radioligand for the receptor (a Scatchard plot was used to determine the KD) (Cheng and Prusoff, 1973).

[4] = system: TNF-α–induced IL-6 release from primary fibroblast-like synoviocytes; assay: Inhibition of TNF-α–induced IL-6 release by primary FLS from rheumatoid arthritis patients; type: cell-based, human; conditions: for IL-6 concentration: replicate wells 1-3
Procedure: In this assay, conducted by BioIVT (Hertfordshire, United Kingdom), primary FLS were obtained from three donors with rheumatoid arthritis and seeded at passage 4 in FGM™-2 fibroblast growth medium (Lonza) in 96-well plates at a density of […], and incubated overnight in standard conditions. […] Negative controls were TNF-α alone and culture medium alone, and vehicle control was DMSO (0.1%). IL-6 was measured in collected supernatant using an enzyme-linked immunosorbent assay (ELISA, R&D Systems Minneapolis, MN, United States) according to the manufacturer’s instructions.
% inhibition= compound -maxmin- max ×100

IC50 ([2]; Homo sapiens, IL-1β 1 ng/mL, 20 h): 0.86 ± 0.13 nM
inhibition at 10 µM [3]: 12.1 to 30.7%
SMILES: C[C@]12C=CC(=O)C=C1CC[C@@H]1[C@@H]2[C@@H](O)C[C@@]2(C)[C@H]1CC[C@]2(O)C(=O)CO [Prednisolone]
inhibition of IL-6 release in A549 cells [1]: 100%
Inhibition of IL-1β–induced IL-6 release ([2]; 100% = 1 μM dexamethasone): 101 ± 2.7%
IL-6 concentration ([4]; Donor 1, compound −5 log M): 260.7 pg/mL and 224.6 pg/mL and 206.6 pg/mL
IL-6 concentration ([4]; Donor 1, compound −6 log M): 269.7 pg/mL and 215.6 pg/mL and 206.6 pg/mL
IL-6 concentration ([4]; Donor 1, compound −7 log M): 292.3 pg/mL and 274.3 pg/mL and 238.1 pg/mL
IL-6 concentration ([4]; Donor 1, compound −8 log M): 616.3 pg/mL and 483.3 pg/mL and 446.8 pg/mL
IL-6 concentration ([4]; Donor 1, compound −9 log M): 988.4 pg/mL and 736.4 pg/mL and 685.5 pg/mL
IL-6 concentration ([4]; Donor 1, compound −10 log M): 880.6 pg/mL and 778.2 pg/mL and 796.8 pg/mL
IL-6 concentration ([4]; Donor 1, compound −11 log M): 964.9 pg/mL and 801.4 pg/mL and 731.8 pg/mL
IL-6 concentration ([4]; Donor 1, compound −12 log M): 946.2 pg/mL and 768.9 pg/mL and 708.6 pg/mL
IL-6 concentration ([4]; Donor 1, compound −13 log M): 1101.6 pg/mL and 838.7 pg/mL and 755.0 pg/mL
IL-6 concentration ([4]; Donor 1, compound −14 log M): 1106.3 pg/mL and 960.2 pg/mL and 880.6 pg/mL
IL-6 concentration ([4]; Donor 2, compound −5 log M): 516.5 pg/mL and 385.6 pg/mL and 394.9 pg/mL
IL-6 concentration ([4]; Donor 2, compound −6 log M): 521.2 pg/mL and 394.9 pg/mL and 381.0 pg/mL
IL-6 concentration ([4]; Donor 2, compound −7 log M): 554.0 pg/mL and 394.9 pg/mL and 404.3 pg/mL
IL-6 concentration ([4]; Donor 2, compound −8 log M): 848.1 pg/mL and 695.7 pg/mL and 681.5 pg/mL
IL-6 concentration ([4]; Donor 2, compound −9 log M): 1338.8 pg/mL and 1045.5 pg/mL and 1157.3 pg/mL
IL-6 concentration ([4]; Donor 2, compound −10 log M): 1309.2 pg/mL and 1108.6 pg/mL and 1215.9 pg/mL
IL-6 concentration ([4]; Donor 2, compound −11 log M): 1497.4 pg/mL and 1079.5 pg/mL and 2570.2 pg/mL
IL-6 concentration ([4]; Donor 2, compound −12 log M): 1427.8 pg/mL and 1215.9 pg/mL and 1123.2 pg/mL
IL-6 concentration ([4]; Donor 2, compound −13 log M): 2326.4 pg/mL and 1123.2 pg/mL and 1142.7 pg/mL
IL-6 concentration ([4]; Donor 2, compound −14 log M): 1552.3 pg/mL and 1393.1 pg/mL and 1255.1 pg/mL
IL-6 concentration ([4]; Donor 3, compound −5 log M): 172.0 pg/mL and 199.6 pg/mL and 166.5 pg/mL
IL-6 concentration ([4]; Donor 3, compound −6 log M): 170.2 pg/mL and 159.2 pg/mL and 179.4 pg/mL
IL-6 concentration ([4]; Donor 3, compound −7 log M): 221.8 pg/mL and 220.0 pg/mL and 214.4 pg/mL
IL-6 concentration ([4]; Donor 3, compound −8 log M): 621.9 pg/mL and 428.5 pg/mL and 386.6 pg/mL
IL-6 concentration ([4]; Donor 3, compound −9 log M): 645.5 pg/mL and 847.5 pg/mL and 637.6 pg/mL
IL-6 concentration ([4]; Donor 3, compound −10 log M): 1022.6 pg/mL and 1127.9 pg/mL and 983.0 pg/mL
IL-6 concentration ([4]; Donor 3, compound −11 log M): 774.8 pg/mL and 813.1 pg/mL and 796.9 pg/mL
IL-6 concentration ([4]; Donor 3, compound −12 log M): 904.7 pg/mL and 837.4 pg/mL and 859.7 pg/mL
IL-6 concentration ([4]; Donor 3, compound −13 log M): 956.1 pg/mL and 937.5 pg/mL and 1151.3 pg/mL
IL-6 concentration ([4]; Donor 3, compound −14 log M): 888.3 pg/mL and 831.3 pg/mL and 947.8 pg/mL
IC50 ([4]; Homo sapiens, primary FLS from three RA donors, 24 h): 5.6 ± 2.3 nM
Inhibition (efficacy) of TNF-α–induced IL-6 release ([4]; primary FLS from three RA donors, 24 h): 79.8 ± 7.6%
